Our source for the IC50 values is ChEMBL document CHEMBL1146433, “Bripiodionen, a new inhibitor of human cytomegalovirus protease from Streptomyces sp. WC76599” (J Nat Prod, 1997).

For one assay, the system named is M109. In words: Cytotoxicity against mouse M109 cells after 72 hrs by XTT assay. Format: functional, cell-based. The note with it: M109, 72 h. (Tetrazolium dyes change colour on reduction, which living cells bring about.)
The nature of assay [1]: Inhibition of HCMV protease. The arrangement: species or system Human betaherpesvirus 5.

`CC(C)C1O/C(=C2/C(=O)NC(CC(N)=O)C2=O)C=CC1C` (configuration not stated) [BRIPIODIONEN]: the 50% inhibitory concentration (IC50) in the assay with M109 worked out at 34 µM; in assay [1] it was 30 µM.

Usually IC50 stands for the concentration at which inhibition is half-maximal.
